In PMC5216056 (Nature Communications, 2017):
Where two headings read alike, the source gives them in different places.

Assays:
AT1 (h) = target: T1, AT1 (h) (Homo sapiens, UniProt P30556); assay: CEREP panel; type: binding; details: 10 µM
T1 construct: CEREP
T1 sequence (P30556 1-359): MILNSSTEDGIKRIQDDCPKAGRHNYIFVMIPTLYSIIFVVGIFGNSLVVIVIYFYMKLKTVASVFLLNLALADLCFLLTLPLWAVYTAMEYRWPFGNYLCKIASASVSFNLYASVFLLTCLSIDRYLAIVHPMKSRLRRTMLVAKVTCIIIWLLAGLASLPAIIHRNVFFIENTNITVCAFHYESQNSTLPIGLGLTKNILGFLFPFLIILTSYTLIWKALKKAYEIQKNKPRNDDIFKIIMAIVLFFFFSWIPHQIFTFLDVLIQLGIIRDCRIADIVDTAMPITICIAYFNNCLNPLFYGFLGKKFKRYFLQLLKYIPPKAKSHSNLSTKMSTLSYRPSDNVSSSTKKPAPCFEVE

beta 1 (h) = target: T2, beta 1 (h) (Homo sapiens, UniProt P08588); assay: biochemical; type: binding; details: 10 µM
T2 construct: CEREP

Rat recombinant TRPV3 = target: T3, Rat recombinant TRPV3 (Rattus norvegicus, UniProt Q4QYD9); assay: cell-based; type: cell-based; details: for IC50: vs thymol 100μM, read-out: TRPV3 IC50 for antagonism or desensitization
T3 construct: expressed in transfected cells; host or cells: HEK293 (TRPV3-HEK-293, gift from HB Bradshaw, Indiana University)
T3 sequence (Q4QYD9 1-791): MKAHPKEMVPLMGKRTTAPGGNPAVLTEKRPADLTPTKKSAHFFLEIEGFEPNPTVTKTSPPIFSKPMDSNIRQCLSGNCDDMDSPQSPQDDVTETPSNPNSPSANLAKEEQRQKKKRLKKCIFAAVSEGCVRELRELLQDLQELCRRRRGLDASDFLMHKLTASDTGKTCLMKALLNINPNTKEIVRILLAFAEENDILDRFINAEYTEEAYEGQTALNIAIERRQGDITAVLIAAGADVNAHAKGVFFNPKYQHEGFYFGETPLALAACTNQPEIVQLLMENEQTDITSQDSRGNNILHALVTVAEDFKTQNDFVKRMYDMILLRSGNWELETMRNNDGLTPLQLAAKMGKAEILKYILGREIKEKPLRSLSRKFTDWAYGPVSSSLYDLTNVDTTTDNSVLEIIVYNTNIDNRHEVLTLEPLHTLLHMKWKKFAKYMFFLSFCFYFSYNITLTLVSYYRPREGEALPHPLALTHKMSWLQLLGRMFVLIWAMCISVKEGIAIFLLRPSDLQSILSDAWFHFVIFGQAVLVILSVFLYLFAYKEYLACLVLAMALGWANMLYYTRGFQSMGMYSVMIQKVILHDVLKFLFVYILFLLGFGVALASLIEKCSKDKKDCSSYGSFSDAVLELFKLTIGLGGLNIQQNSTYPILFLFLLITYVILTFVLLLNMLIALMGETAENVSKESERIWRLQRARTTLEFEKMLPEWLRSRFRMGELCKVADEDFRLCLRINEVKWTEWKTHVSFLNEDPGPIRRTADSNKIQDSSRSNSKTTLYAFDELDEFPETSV

hCB2R [1] = target: T4, hCB2R (Homo sapiens, UniProt P34972); parameters: expressed in transfected cells; host or cells: Flp-In-293 (Invitrogen #R750-07), pcDNA5/FRT
hCB1R = target: T5, hCB1R (Homo sapiens, UniProt P21554); assay: cell-based; type: cell-based; details: read-out: Emax ± SEM β-AR recruitment hCB1R
T5 construct: host or cells: CHO

BZD (central) = type: binding; details: 10 µM
hCB2R [2] = target: T4, hCB2R; assay: biochemical; type: binding
[3] = system: AEA cellular uptake in U937 cells; assay: cells; type: cell-based, human

T2 sequence (P08588 whole entry): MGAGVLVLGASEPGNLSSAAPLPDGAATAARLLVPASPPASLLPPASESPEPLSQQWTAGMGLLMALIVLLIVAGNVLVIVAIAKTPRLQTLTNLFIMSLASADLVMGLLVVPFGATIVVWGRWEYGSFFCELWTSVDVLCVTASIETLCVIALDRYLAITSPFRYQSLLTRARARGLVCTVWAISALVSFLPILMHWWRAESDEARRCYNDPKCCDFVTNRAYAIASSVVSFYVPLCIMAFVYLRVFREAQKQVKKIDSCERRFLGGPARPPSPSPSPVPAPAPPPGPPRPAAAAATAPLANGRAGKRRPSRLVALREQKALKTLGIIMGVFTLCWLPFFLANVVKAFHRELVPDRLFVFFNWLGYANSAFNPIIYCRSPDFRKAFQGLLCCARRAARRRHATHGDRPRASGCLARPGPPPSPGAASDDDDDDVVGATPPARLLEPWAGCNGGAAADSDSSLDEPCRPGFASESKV
T4 sequence (P34972 whole entry): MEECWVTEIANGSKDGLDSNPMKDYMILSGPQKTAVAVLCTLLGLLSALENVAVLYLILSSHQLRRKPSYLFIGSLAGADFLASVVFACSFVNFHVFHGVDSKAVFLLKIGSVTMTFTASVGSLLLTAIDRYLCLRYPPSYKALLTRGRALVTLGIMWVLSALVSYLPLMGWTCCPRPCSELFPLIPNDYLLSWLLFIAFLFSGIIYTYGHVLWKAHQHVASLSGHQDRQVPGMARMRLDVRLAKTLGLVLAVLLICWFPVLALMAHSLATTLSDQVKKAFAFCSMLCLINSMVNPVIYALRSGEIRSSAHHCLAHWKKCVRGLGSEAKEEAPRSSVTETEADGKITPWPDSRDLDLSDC
T5 sequence (P21554 whole entry): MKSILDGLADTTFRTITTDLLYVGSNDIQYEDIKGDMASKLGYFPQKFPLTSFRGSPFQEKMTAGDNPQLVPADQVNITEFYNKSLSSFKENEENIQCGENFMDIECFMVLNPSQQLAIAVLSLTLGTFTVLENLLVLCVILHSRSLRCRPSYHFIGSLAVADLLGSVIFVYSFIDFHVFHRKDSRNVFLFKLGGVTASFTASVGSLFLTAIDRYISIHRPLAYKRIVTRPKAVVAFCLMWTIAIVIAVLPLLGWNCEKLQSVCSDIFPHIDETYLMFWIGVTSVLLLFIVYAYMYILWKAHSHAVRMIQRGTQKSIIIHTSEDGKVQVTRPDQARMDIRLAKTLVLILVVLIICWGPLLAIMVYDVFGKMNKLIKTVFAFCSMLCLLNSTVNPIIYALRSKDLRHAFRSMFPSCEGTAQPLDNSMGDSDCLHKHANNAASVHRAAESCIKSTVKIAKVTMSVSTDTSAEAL

Cc1c(C(=O)NN2CCCCC2)nn(-c2ccc(Cl)cc2Cl)c1-c1ccc(I)cc1 [AM251]
% inhibition AT1 (h) (AT1 (h)): 36% | % inhibition beta 1 (h) (beta 1 (h)): 25% | TRPV3 Efficacy (% ionomycin 4μM) (Rat recombinant TRPV3): 25.9%

CCCCCCC(C)(C)c1ccc([C@@H]2C[C@H](O)CC[C@H]2CCCO)c(O)c1 [CP55940]
GIRK-GTPγS bias factor (BF) (hCB2R [1]): 1.00 | GIRK-GTPγS ΔΔlogR (hCB2R [1]): 0 ± 0.34 | GIRK-cAMP bias factor (BF) (hCB2R [1]): 1.00 | GIRK-cAMP ΔΔlogR (hCB2R [1]): 0 ± 0.12 | GTPγS-cAMP bias factor (BF) (hCB2R [1]): 1.00 | GTPγS-cAMP ΔΔlogR (hCB2R [1]): 0 ± 0.34 | LogR GIRK (hCB2R [1]): 7.863 | RE GIRK (hCB2R [1]): 1.00 | RE GTPγS (hCB2R [1]): 1.00 | RE cAMP (hCB2R [1]): 1.00 | RE pERK (hCB2R [1]): 1.00 | RE β-AR (hCB2R [1]): 1.00 | pERK-GIRK bias factor (BF) (hCB2R [1]): 1.00 | pERK-GIRK ΔΔlogR (hCB2R [1]): 0 ± 0.25 | pERK-GTPγS bias factor (BF) (hCB2R [1]): 1.00 | pERK-GTPγS ΔΔlogR (hCB2R [1]): 0 ± 0.41 | pERK-cAMP bias factor (BF) (hCB2R [1]): 1.00 | pERK-cAMP ΔΔlogR (hCB2R [1]): 0 ± 0.26 | ΔLogR GIRK (hCB2R [1]): 0 ± 0.07 | ΔLogR GTPγS (hCB2R [1]): 0 ± 0.33 | ΔLogR cAMP (hCB2R [1]): 0 ± 0.09 | ΔLogR pERK (hCB2R [1]): 0 ± 0.24 | ΔLogR β-AR (hCB2R [1]): 0 ± 0.07 | β-AR-GIRK bias factor (BF) (hCB2R [1]): 1.00 | β-AR-GIRK ΔΔlogR (hCB2R [1]): 0 ± 0.1 | β-AR-GTPγS bias factor (BF) (hCB2R [1]): 1.00 | β-AR-GTPγS ΔΔlogR (hCB2R [1]): 0 ± 0.34 | β-AR-cAMP bias factor (BF) (hCB2R [1]): 1.00 | β-AR-cAMP ΔΔlogR (hCB2R [1]): 0 ± 0.12 | β-AR-pERK bias factor (BF) (hCB2R [1]): 1.00 | β-AR-pERK ΔΔlogR (hCB2R [1]): 0 ± 0.25 | Emax (hCB1R): 94 ± 2% | inhibition at 10 µM (AT1 (h); read-out: % inhibition AT1 (h)): 63% | % inhibition BZD (central) (BZD (central)): -9% | inhibition at 10 µM (beta 1 (h); read-out: % inhibition beta 1 (h)): 14%

COc1ccc(C(=O)c2c(C)n(CCN3CCOCC3)c3cc(I)ccc23)cc1 [AM630]
pKi ± SEM hCB2R (hCB2R [2]): 7.39 ± 0.02 | % inhibition AT1 (h) (AT1 (h)): 17% | AEA reuptake % inhibition, effect at 10 µM, U937 cells ([3]; 10 µM (values marked *)): 23% | IC50 ([3]; read-out: AEA reuptake IC50 (95% CI) U937 cells): > 10000 nM | % inhibition BZD (central) (BZD (central)): -12% | % inhibition beta 1 (h) (beta 1 (h)): 9% | TRPV3 Efficacy (% ionomycin 4μM) (Rat recombinant TRPV3): < 10% | IC50 (Rat recombinant TRPV3): > 100000 nM

Cc1c(C(=O)NN2CCCCC2)nn(-c2ccc(Cl)cc2Cl)c1-c1ccc(Cl)cc1 [SR141716A]
IC50 ([3]; Homo sapiens, U-937, read-out: AEA reuptake IC50 (95% CI) U937 cells): 1910 nM | AEA reuptake Efficacy (% inhibition) U937 cells ([3]; from dose-response): 57% | TRPV3 Efficacy (% ionomycin 4μM) (Rat recombinant TRPV3): 38.9% | EC50 (Rat recombinant TRPV3; read-out: TRPV3 Potency EC50): 850 nM | IC50 (Rat recombinant TRPV3): 3400 ± 400 nM

CCCCC/C=C\C/C=C\C/C=C\C/C=C\CCCC(=O)NCCO [Anandamide, N-arachidonoylethanolamine]
GIRK-GTPγS bias factor (BF) (hCB2R [1]; hCB2R): 2.57 | GIRK-GTPγS ΔΔlogR (hCB2R [1]; hCB2R): 0.41 ± 0.65 | GIRK-cAMP bias factor (BF) (hCB2R [1]; hCB2R): 26.36 | GIRK-cAMP ΔΔlogR (hCB2R [1]; hCB2R): 1.42 ± 0.34 | GTPγS-cAMP bias factor (BF) (hCB2R [1]; hCB2R): 10.26 | GTPγS-cAMP ΔΔlogR (hCB2R [1]; hCB2R): 1.01 ± 0.41 | LogR GIRK (hCB2R [1]; hCB2R): 4.53 | LogR GTPγS (hCB2R [1]; hCB2R): 4.54 | LogR cAMP (hCB2R [1]; hCB2R): 5.96 | LogR pERK (hCB2R [1]; hCB2R): 6.03 | LogR β-AR (hCB2R [1]; hCB2R): 5.54 | pERK-GIRK bias factor (BF) (hCB2R [1]; hCB2R): 2.14 | pERK-GIRK ΔΔlogR (hCB2R [1]; hCB2R): 0.33 ± 0.43 | pERK-GTPγS bias factor (BF) (hCB2R [1]; hCB2R): 5.50 | pERK-GTPγS ΔΔlogR (hCB2R [1]; hCB2R): 0.74 ± 0.66 | pERK-cAMP bias factor (BF) (hCB2R [1]; hCB2R): 56.36 | pERK-cAMP ΔΔlogR (hCB2R [1]; hCB2R): 1.75 ± 0.37 | β-AR-GIRK bias factor (BF) (hCB2R [1]; hCB2R): 2.37 | β-AR-GIRK ΔΔlogR (hCB2R [1]; hCB2R): 0.38 ± 0.37 | β-AR-GTPγS bias factor (BF) (hCB2R [1]; hCB2R): 6.10 | β-AR-GTPγS ΔΔlogR (hCB2R [1]; hCB2R): 0.79 ± 0.62 | β-AR-cAMP bias factor (BF) (hCB2R [1]; hCB2R): 62.52 | β-AR-cAMP ΔΔlogR (hCB2R [1]; hCB2R): 1.80 ± 0.29 | β-AR-pERK bias factor (BF) (hCB2R [1]; hCB2R): 1.11 | β-AR-pERK ΔΔlogR (hCB2R [1]; hCB2R): 0.04 ± 0.39 | ΔLogR GIRK (hCB2R [1]; hCB2R, reference CP55940): -3.33 | ΔLogR GTPγS (hCB2R [1]; hCB2R, reference CP55940): -3.74 | ΔLogR cAMP (hCB2R [1]; hCB2R, reference CP55940): -4.76 | ΔLogR pERK (hCB2R [1]; hCB2R, reference CP55940): -3 ± 0.32 | ΔLogR β-AR (hCB2R [1]; hCB2R, reference CP55940): -2.96 | RE GIRK (hCB2R [1]; hCB2R, relative effectiveness): 0.005 | RE GTPγS (hCB2R [1]; hCB2R, relative effectiveness): 0.0002 | RE cAMP (hCB2R [1]; hCB2R, relative effectiveness): 0.00002 | RE pERK (hCB2R [1]; hCB2R, relative effectiveness): 0.001 | RE β-AR (hCB2R [1]; hCB2R, relative effectiveness): 0.001
